These results are taken from PubChem BioAssay AID256 (DTP/NCI, 2004).

Molecules are shown by their SMILES. Values joined by “and” are separate entries in the source; they are usually repeats but may differ in a detail not shown here. Equal values may be shown once. Toxic doses and inconclusive results are not listed.

The test system of the assay is CD2F1 mice, L1210 leukemia ip, survival T/C. The assay is described as follows: NCI In Vivo Anticancer Drug Screen. Data for tumor model L1210 Leukemia (intraperitoneal) in CD2F1 (CDF1) mice. As to conditions: higher = longer survival. The gist of the method:
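Each value reflects a quotient of treated over vehicle control outcomes in mice with a transplanted tumor.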

Setting [1] is: endpoint: mean survival time, dose: 25.0 mg/kg/injection, schedule: Q01DX009 (ip), vehicle: Klucel (hydroxypropylcellulose) (HPC).
The mark [2] stands for this setting: endpoint: mean survival time, dose: 50.0 mg/kg/injection, schedule: Q01DX009 (ip), vehicle: Klucel (hydroxypropylcellulose) (HPC).
[3] abbreviates: endpoint: mean survival time, dose: 100.0 mg/kg/injection, schedule: Q01DX009 (ip), vehicle: saline with Tween-80.
Setting [4] is: endpoint: mean survival time, dose: 100.0 mg/kg/injection, schedule: Q04DX003 (ip), vehicle: saline with Tween-80.
[5] abbreviates: endpoint: mean survival time, dose: 200.0 mg/kg/injection, schedule: Q01DX009 (ip), vehicle: saline with Tween-80.
Where [6] appears, read: endpoint: mean survival time, dose: 200.0 mg/kg/injection, schedule: Q04DX003 (ip), vehicle: saline with Tween-80.
Where [7] appears, read: endpoint: mean survival time, dose: 400.0 mg/kg/injection, schedule: Q01DX009 (ip), vehicle: saline with Tween-80.
Where [8] appears, read: endpoint: mean survival time, dose: 400.0 mg/kg/injection, schedule: Q04DX003 (ip), vehicle: saline with Tween-80.
The mark [9] stands for this setting: endpoint: mean survival time, dose: 100.0 mg/kg/injection, schedule: Q01DX001 (ip), vehicle: saline with Tween-80.
[10] abbreviates: endpoint: mean survival time, dose: 400.0 mg/kg/injection, schedule: Q01DX001 (ip), vehicle: saline with Tween-80.
The mark [11] stands for this setting: endpoint: mean survival time, dose: 200.0 mg/kg/injection, schedule: Q01DX001 (ip), vehicle: saline with Tween-80.
Where [12] appears, read: endpoint: mean survival time, dose: 100.0 mg/kg/injection, schedule: Q01DX001 (ip), vehicle: saline.
The mark [13] stands for this setting: endpoint: mean survival time, dose: 200.0 mg/kg/injection, schedule: Q01DX001 (ip), vehicle: saline.
Setting [14] is: endpoint: mean survival time, dose: 400.0 mg/kg/injection, schedule: Q01DX001 (ip), vehicle: saline.

`O=C(CCl)c1cnc2ccccc2n1`: the T/C (endpoint: mean survival time, dose: 5.0 mg/kg/injection, schedule: Q01DX001 (ip), vehicle: saline) was 91 % of control; the T/C (endpoint: mean survival time, dose: 10.0 mg/kg/injection, schedule: Q01DX001 (ip), vehicle: saline) was 94 % of control; the T/C (endpoint: mean survival time, dose: 20.0 mg/kg/injection, schedule: Q01DX001 (ip), vehicle: saline) was 95 % of control.

In the case of `CC(=O)Nc1ccc(S(N)(=O)=O)cc1`, the T/C was 100 % of control under setting [1]; 95 % of control under setting [2]; 100 % of control (endpoint: mean survival time, dose: 100.0 mg/kg/injection, schedule: Q01DX009 (ip), vehicle: Klucel (hydroxypropylcellulose) (HPC)).

Turning to `Clc1ccccc1CCCBr`, the T/C under setting [3] was 96 % of control; the T/C under setting [4] was 92 % of control; the T/C under setting [5] was 104 % of control; the T/C under setting [6] was 97 % of control; the T/C under setting [7] is 106 % of control; the T/C under setting [8] was 88 % of control.

For the molecule `CN1c2c(nc(N)[nH]c2=O)NCC1CCNc1ccc(C(=O)NC(CCC(=O)O)C(=O)O)cc1` (stereo unspecified), the T/C is, setting by setting: under setting [1], 118 % of control; under setting [2], 123 % of control; (endpoint: mean survival time, dose: 200.0 mg/kg/injection, schedule: Q01DX009 (ip), vehicle: sodium bicarbonate) 119 % of control; (endpoint: mean survival time, dose: 1250.0 mg/kg/injection, schedule: Q01DX009 (ip), vehicle: sodium bicarbonate) 155 % of control.

On to `Cc1cc(O)c(Br)c(C)c1Br`, for which the T/C under setting [3] was 111 % of control; the T/C under setting [4] is 104 % of control; the T/C under setting [5] is 98 % of control; the T/C under setting [6] is 97 % of control; the T/C under setting [7] is 106 % of control; the T/C under setting [8] was 101 % of control.

In the case of `CC1c2ccccc2CC(CCN(C)C)c2ccccc21` (stereo unspecified), the T/C was 94 % of control (endpoint: median survival time, dose: 6.25 mg/kg/injection, schedule: Q01DX009 (ip), vehicle: saline with Tween-80); 113 % of control (endpoint: median survival time, dose: 12.5 mg/kg/injection, schedule: Q01DX009 (ip), vehicle: saline with Tween-80); 108 % of control (endpoint: median survival time, dose: 25.0 mg/kg/injection, schedule: Q01DX009 (ip), vehicle: saline with Tween-80); 112 % of control (endpoint: median survival time, dose: 50.0 mg/kg/injection, schedule: Q01DX009 (ip), vehicle: saline with Tween-80).

As to `O=C(Nc1ccc2ccccc2c1-c1c(NC(=O)c2ccccc2)ccc2ccccc12)c1ccccc1`, the T/C is 91 % of control under setting [9] and 91 % of control under setting [10].

Regarding `CCC1(O)C(=O)OCc2c1cc1n(c2=O)Cc2cc3ccc(CN)cc3nc2-1` (stereo unspecified), the T/C is, setting by setting: (endpoint: median survival time, dose: 10.0 mg/kg/injection, schedule: Q04DX002 (ip), vehicle: saline with Tween-80) 109 % of control; (endpoint: median survival time, dose: 10.0 mg/kg/injection, schedule: Q04DX002 (ip), vehicle: water) 102 % of control; (endpoint: median survival time, dose: 20.0 mg/kg/injection, schedule: Q04DX002 (ip), vehicle: saline with Tween-80) 109 % of control; (endpoint: median survival time, dose: 20.0 mg/kg/injection, schedule: Q04DX002 (ip), vehicle: water) 102 % of control; (endpoint: median survival time, dose: 40.0 mg/kg/injection, schedule: Q04DX002 (ip), vehicle: saline with Tween-80) 106 % of control; (endpoint: median survival time, dose: 40.0 mg/kg/injection, schedule: Q04DX002 (ip), vehicle: water) 107 % of control. Moreover, the T/C (endpoint: median survival time, dose: 80.0 mg/kg/injection, schedule: Q04DX002 (ip), vehicle: saline with Tween-80) is 113 % of control and the T/C (endpoint: median survival time, dose: 80.0 mg/kg/injection, schedule: Q04DX002 (ip), vehicle: water) was 108 % of control.

As for `COC1CC2C=C(C)/C=C/C=C/C(=O)NC(c3ccccc3)C/C=C/CCC(O)CC(=O)C2=C1O` (stereo unspecified), the T/C (endpoint: median survival time, dose: 3.12 mg/kg/injection, schedule: Q01DX009 (ip), vehicle: Klucel (hydroxypropylcellulose) (HPC)) was 108 % of control; the T/C (endpoint: median survival time, dose: 6.25 mg/kg/injection, schedule: Q01DX009 (ip), vehicle: Klucel (hydroxypropylcellulose) (HPC)) is 111 % of control; the T/C (endpoint: median survival time, dose: 12.5 mg/kg/injection, schedule: Q01DX009 (ip), vehicle: Klucel (hydroxypropylcellulose) (HPC)) was 101 % of control.

With `O=C(CCl)c1ccc(O)c(O)c1`, the T/C runs as follows: (endpoint: mean survival time, dose: 6.25 mg/kg/injection, schedule: Q04DX003 (ip), vehicle: saline) 94 % of control; (endpoint: mean survival time, dose: 12.5 mg/kg/injection, schedule: Q04DX003 (ip), vehicle: saline) 92 % of control; (endpoint: mean survival time, dose: 25.0 mg/kg/injection, schedule: Q04DX003 (ip), vehicle: saline) 92 % of control.

As to `Cc1ccc(-c2csc(/N=C/c3ccccc3O)n2)cc1`, the T/C runs as follows: under setting [9], 89 % of control; under setting [11], 86 % of control; under setting [10], 86 % of control.

As to `COc1cc2c(c(OC)c1OC)-c1ccc(OC)c(=O)cc1[C@@H](N(C)C(C)=O)CC2`, the T/C by setting is: (endpoint: mean survival time, dose: 0.06 mg/kg/injection, schedule: Q01DX005 (ip), vehicle: Klucel (hydroxypropylcellulose) (HPC)) 103 % of control; (endpoint: mean survival time, dose: 0.13 mg/kg/injection, schedule: Q01DX005 (ip), vehicle: Klucel (hydroxypropylcellulose) (HPC)) 104 % of control; (endpoint: mean survival time, dose: 0.25 mg/kg/injection, schedule: Q01DX005 (ip), vehicle: Klucel (hydroxypropylcellulose) (HPC)) 110 % of control; (endpoint: mean survival time, dose: 1.0 mg/kg/injection, schedule: Q01DX005 (ip), vehicle: Klucel (hydroxypropylcellulose) (HPC)) 150 % of control.

On to `C[Si](C)(C)Oc1ccc(O[Si](C)(C)C)cc1`, for which the T/C (endpoint: mean survival time, dose: 100.0 mg/kg/injection, schedule: Q04DX003 (ip), vehicle: other) was 109 % of control; the T/C (endpoint: mean survival time, dose: 200.0 mg/kg/injection, schedule: Q04DX003 (ip), vehicle: other) was 97 % of control; the T/C (endpoint: mean survival time, dose: 400.0 mg/kg/injection, schedule: Q04DX003 (ip), vehicle: other) is 106 % of control.

On to `O=C(CCC(=O)Nc1ccc(S(=O)(=O)NCCO)cc1)Nc1ccc(S(=O)(=O)NCCO)cc1`, for which the T/C was 105 % of control (endpoint: mean survival time, dose: 12.5 mg/kg/injection, schedule: Q01DX001 (ip), vehicle: saline with Tween-80); 96 % of control (endpoint: mean survival time, dose: 12.5 mg/kg/injection, schedule: Q04DX002 (ip), vehicle: saline with Tween-80); 107 % of control (endpoint: mean survival time, dose: 25.0 mg/kg/injection, schedule: Q01DX001 (ip), vehicle: saline with Tween-80); 96 % of control (endpoint: mean survival time, dose: 25.0 mg/kg/injection, schedule: Q04DX002 (ip), vehicle: saline with Tween-80); 97 % of control (endpoint: mean survival time, dose: 50.0 mg/kg/injection, schedule: Q01DX001 (ip), vehicle: saline with Tween-80); 86 % of control (endpoint: mean survival time, dose: 50.0 mg/kg/injection, schedule: Q04DX002 (ip), vehicle: saline with Tween-80).

With `OCC#CC1CCCCC1`, the T/C (endpoint: mean survival time, dose: 50.0 mg/kg/injection, schedule: Q01DX009 (ip), vehicle: saline with Tween-80) was 107 % of control; the T/C under setting [3] is 107 % of control; the T/C under setting [5] is 101 % of control.

Regarding `O=C(O)CCSCCC(=O)O`, the T/C reads like this: under setting [12], 100 % of control; under setting [13], 105 % of control; under setting [14], 101 % of control.

As to `CC(=O)OCC1OC([S-])C(OC(C)=O)C(OC(C)=O)C1OC(C)=O.CC[PH+](CC)CC.CC[PH+](CC)CC.[Au].[Au]` (stereo unspecified), the T/C is, setting by setting: (endpoint: mean survival time, dose: 0.62 mg/kg/injection, schedule: Q01DX009 (ip), vehicle: Klucel (hydroxypropylcellulose) (HPC)) 100 % of control and 102 % of control; (endpoint: mean survival time, dose: 1.25 mg/kg/injection, schedule: Q01DX009 (ip), vehicle: Klucel (hydroxypropylcellulose) (HPC)) 100 % of control and 104 % of control; (endpoint: mean survival time, dose: 2.5 mg/kg/injection, schedule: Q01DX009 (ip), vehicle: Klucel (hydroxypropylcellulose) (HPC)) 96 % of control and 102 % of control; (endpoint: mean survival time, dose: 5.0 mg/kg/injection, schedule: Q01DX009 (ip), vehicle: Klucel (hydroxypropylcellulose) (HPC)) 97 % of control and 98 % of control; (endpoint: mean survival time, dose: 10.0 mg/kg/injection, schedule: Q01DX009 (ip), vehicle: Klucel (hydroxypropylcellulose) (HPC)) 94 % of control and 97 % of control.

For the molecule `CC1CC(C)(C)CC(=O)O1` (stereo unspecified), the T/C (endpoint: mean survival time, dose: 75.0 mg/kg/injection, schedule: Q01DX001 (ip), vehicle: saline) was 101 % of control.

For `O=C(c1ccccc1)C1OC1(CCl)c1ccccc1` (stereo unspecified), the T/C under setting [9] is 106 % of control, the T/C under setting [11] was 90 % of control and the T/C under setting [10] is 86 % of control.

For `CCCN(CCC)S(=O)(=O)c1ccc(NC(=O)Oc2ccccc2OC)cc1`, the T/C reads like this: under setting [12], 95 % of control; under setting [13], 91 % of control; under setting [14], 91 % of control.
